What follows are compounds tested against T1, GR LBD (ligand binding domain) (Homo sapiens, UniProt P04150) (assay: GR Reporter Assay (pBind assay, pG5luc luciferase reporter, agonist mode)). Settings: HEK293 cells transiently transfected with pG5luc and GR LBD.
T1 construct: expressed in transfected cells; host or cells: HEK293
T1 sequence (P04150 524-758 limits assumed): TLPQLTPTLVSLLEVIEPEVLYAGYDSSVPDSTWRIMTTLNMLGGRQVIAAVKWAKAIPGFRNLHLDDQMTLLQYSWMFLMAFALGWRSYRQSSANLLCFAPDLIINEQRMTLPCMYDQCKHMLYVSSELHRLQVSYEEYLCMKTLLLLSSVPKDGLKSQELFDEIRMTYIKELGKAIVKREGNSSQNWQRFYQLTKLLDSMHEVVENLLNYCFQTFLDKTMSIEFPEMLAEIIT
Format: cell-based
Protocol: The assay is a pBind assay following the general principle outlined below. 2×10^4 HEK293 cells/96-well are transiently transfected with pG5luc and GR LBD 1:1 at 50 ng/well. GR LBD (ligand binding domain) is a […] fusion protein (used to yeast GAL4) and upon binding to the test article will bind the luciferase reporter and activate transcription of luciferase. Upon addition of a substrate, the luciferase activity can be measured and corresponds to the activity of the test article. The assay is performed in agonist mode.

EC50 [nM]	SMILES
> 30	CNC(=O)[C@@]1(OC(=O)c2ccc(N)cc2)[C@H](C)C[C@H]2[C@@H]3C[C@H](F)C4=CC(=O)C=C[C@]4(C)[C@@]3(F)[C@@H](O)C[C@@]21C [Compound 11]
< 5	C[C@@H]1C[C@H]2[C@@H]3CCC4=CC(=O)C=C[C@]4(C)[C@@]3(F)[C@@H](O)C[C@]2(C)[C@@]1(OC(=O)c1cccc(N)c1)C(=O)N(C)C [Compound 12]
> 30	C[C@@H]1C[C@H]2[C@@H]3C[C@H](F)C4=CC(=O)C=C[C@]4(C)[C@@]3(F)[C@@H](O)C[C@]2(C)[C@@]1(OC(=O)c1cccc(N)c1)C(=O)N1CCCC1 [Compound 14]
> 30	C[C@@H]1C[C@H]2[C@@H]3C[C@H](F)C4=CC(=O)C=C[C@]4(C)[C@@]3(F)[C@@H](O)C[C@]2(C)[C@@]1(OC(=O)c1cccc(N)c1)C(=O)N1CCOCC1 [Compound 15]
> 30	C[C@@H]1C[C@H]2[C@@H]3C[C@H](F)C4=CC(=O)C=C[C@]4(C)[C@@]3(F)[C@@H](O)C[C@]2(C)[C@@]1(OC(=O)c1cccc(N)c1)C(=O)N1CC(CO)C1 [Compound 17]
> 30	C[C@@H]1C[C@H]2[C@@H]3C[C@H](F)C4=CC(=O)C=C[C@]4(C)[C@@]3(F)[C@@H](O)C[C@]2(C)[C@@]1(OC(=O)c1cccc(N)c1)C(=O)N(C)CCO [Compound 18]
> 30	C[C@@H]1C[C@H]2[C@@H]3C[C@H](F)C4=CC(=O)C=C[C@]4(C)[C@@]3(F)[C@@H](O)C[C@]2(C)[C@@]1(OC(=O)c1cccc(N)c1)C(=O)NCCO [Compound 19]
> 30	C[C@@H]1C[C@H]2[C@@H]3C[C@H](F)C4=CC(=O)C=C[C@]4(C)[C@@]3(F)[C@@H](O)C[C@]2(C)[C@@]1(OC(=O)c1cccc(N)c1)C(=O)N(C)CC(O)CO (stereo partly drawn) [Compound 20, (6S,8S,9R,10S,11S,13S,14S,16R,17R)-17-((2,3-dihydroxypropyl)(methyl)carbamoyl)-6,9-difluoro-11-hydroxy-10,13,16-trimethyl-3-oxo-6,7,8,9,10,11,12,13,14,15,16,17-dodecahydro-3H-cyclopenta[a]phenanthren-17-yl 3-aminobenzoate]
< 5	CN(C)C(=O)[C@@]12O[C@H](c3cccc(Cc4cccc(N)c4)c3)O[C@@H]1C[C@H]1[C@@H]3CCC4=CC(=O)C=C[C@]4(C)[C@H]3[C@@H](O)C[C@@]12C [Compound 23]
< 5	C[C@]12C=CC(=O)C=C1CC[C@@H]1[C@@H]2[C@@H](O)C[C@@]2(C)[C@H]1C[C@H]1O[C@@H](c3ccc(Cc4cccc(N)c4)cc3)O[C@]12C(=O)CF [Compound 25]

Second part, the compound before the results:

SMILES	EC50 [nM]
C[C@]12C=CC(=O)C=C1CC[C@H]1[C@@H]3C[C@H]4O[C@H](c5cccc(N)c5)O[C@@]4(C(=O)CCl)[C@@]3(C)C[C@H](O)[C@@]12F [Compound 1]	< 5
C[C@]12C=CC(=O)C=C1CC[C@H]1[C@@H]3C[C@H]4O[C@@H](c5cccc(N)c5)O[C@@]4(C(=O)CCl)[C@@]3(C)C[C@H](O)[C@@]12F [Compound 2]	< 5
C[C@]12C=CC(=O)C=C1CC[C@H]1[C@@H]3C[C@H]4O[C@@H](c5cccc(N)c5)O[C@@]4(C(=O)CF)[C@@]3(C)C[C@H](O)[C@@]12F [Compound 3]	< 5
C[C@@H]1C[C@H]2[C@@H]3C[C@H](F)C4=CC(=O)C=C[C@]4(C)[C@@]3(F)[C@@H](O)C[C@]2(C)[C@@]1(OC(=O)c1ccco1)C(=O)NCCOc1ccc(N)cc1 [Compound 7]	< 5
C[C@@H]1C[C@H]2[C@@H]3C[C@H](F)C4=CC(=O)C=C[C@]4(C)[C@@]3(F)[C@@H](O)C[C@]2(C)[C@@]1(OC(=O)c1cccc(N)c1)C(=O)N(C)C [Compound 8]	< 5
C[C@@H]1C[C@H]2[C@@H]3C[C@H](F)C4=CC(=O)C=C[C@]4(C)[C@@]3(F)[C@@H](O)C[C@]2(C)[C@@]1(OC(=O)c1ccc(N)cc1)C(=O)N(C)C [Compound 9]	< 5
CNC(=O)[C@@]1(OC(=O)c2cccc(N)c2)[C@H](C)C[C@H]2[C@@H]3C[C@H](F)C4=CC(=O)C=C[C@]4(C)[C@@]3(F)[C@@H](O)C[C@@]21C [Compound 10]	> 30
